Results: patent US8546421B1, “Oncogenic-RAS-signal dependent lethal compounds” (The Trustees of Columbia University in the City of New York, priority 2007, dated 2013)
Converted amounts (≈) assume the structure as drawn.

What was measured:
[1] = tested on: BJ-TERT/LT/ST/RAS^V12 cells; test: Alamar blue growth inhibition in dilution series; assay type: cell-based, human; settings: Homo sapiens, alamar blue
[2] = tested on: BJ-TERT/LT/ST/RAS^V12 cells; test: Counter screening with iron chelators; assay type: cell-based, human; settings: DFOM and three additional iron-binding compounds; 24 hours
Description: Cells were treated with iron chelators by transferring 4 μL of 1 mM deferoxamine mesylate (Calbiochem, cat.#252750), 500 μM compound 1a (Chembridge, cat.#5175092), 1 mM compound 2 (Ryan Scientific, cat.#LT01784723), or 100 μM compound 311 (Chembridge, cat.#5135701) in growth media to the assay plate. Then, 4 μL was transferred from the ‘10× lethal plate’ (described in ‘counter screening with biologically active compounds’) to the assay plate in order to induce cell death. Assay plates were incubated for 24 hours and alamar blue was added to the plates at a final concentration of 10%.

[3] = tested on: BJ-derived cell lines (BJ-TERT/LT/ST/RAS^V12 cells); test: Vi-Cell analysis (trypan blue exclusion); assay type: cell-based, human; settings: 24 hours
Description: 200,000 cells were seeded in 6-well plates and treated with the indicated amount of 2-fold dilution series concentration of a candidate compound in 2 mL BJ growth medium. After 24 hours, cells were released with trypsin/EDTA, harvested in 1.1 mL growth medium, and transferred to a Vi-Cell (Beckman Coulter) disposable cup. After, trypan blue staining, 100 images of sample were taken and analysis of the images was carried out automatically by a Vi-Cell cell viability analyzer (Beckman Coulter).

HL-60(TB) = test: cells; settings: Homo sapiens
OVCAR-3 = settings: Ovarian Cancer
CCRF-CEM = test: NCI60 anti-cancer screening
K-562 = test: NCI60 anti-cancer screening
RPMI-8226 = test: NCI60 anti-cancer screening
NCI-H522 = test: NCI60 anti-cancer screening
COLO 205 = test: NCI60 anti-cancer screening
SW-620 = test: NCI60 anti-cancer screening
SF-539 = test: NCI60 anti-cancer screening
SNB-75 = test: NCI60 anti-cancer screening
MALME-3M = test: NCI60 anti-cancer screening
UACC-257 = test: NCI60 anti-cancer screening
UACC-62 = test: NCI60 anti-cancer screening
OVCAR-4 = test: NCI60 anti-cancer screening
786-0 = test: NCI60 anti-cancer screening
A498 = test: NCI60 anti-cancer screening
TK-10 = test: NCI60 anti-cancer screening
UO-31 = test: NCI60 anti-cancer screening
DU-145 = test: NCI60 anti-cancer screening
MCF-7 = test: NCI60 anti-cancer screening
NCI/ADR-RES = test: NCI60 anti-cancer screening
BT-549 = test: NCI60 anti-cancer screening
T-47D = test: NCI60 anti-cancer screening

C=C1CCC2C(C)(C)CCC[C@]2(C)C1CC/C(C)=C\CC/C(C)=N/NC(N)=S (stereo partly drawn) [Compound 36]
IC90 [1]: 1 µg/mL (≈ 2.48 µM)
effect of iron chelators on compound activity / induced cell death [2]: significantly inhibited
potency and selectivity by trypan blue exclusion (in words) [3]: confirmed the growth inhibitory potency and selectivity
GI50 (HL-60(TB); HL-60): 163 nM
CC50 (HL-60(TB); HL-60, read-out: LC 50%): 2620 nM
GI 100% (OVCAR-3): 0.804 µM
GI50 (CCRF-CEM; Homo sapiens): 165 nM
CC50 (CCRF-CEM; Homo sapiens, read-out: LC 50%): 5570 nM
GI 100% (CCRF-CEM; Leukemia): 0.705 µM
GI50 (K-562; Homo sapiens, K562): 267 nM
CC50 (K-562; Homo sapiens, K562, read-out: LC 50%): 3510 nM
GI 100% (K-562; K-562, Leukemia): 1.08 µM
GI50 (RPMI-8226; Homo sapiens, RPMI-8226): 194 nM
CC50 (RPMI-8226; Homo sapiens, RPMI-8226, read-out: LC 50%): 6980 nM
GI 100% (RPMI-8226; RPMI-8226, Leukemia): 0.889 µM
GI50 (NCI-H522; Homo sapiens, NCI-H522): 82.9 nM
CC50 (NCI-H522; Homo sapiens, NCI-H522, read-out: LC 50%): 1180 nM
GI 100% (NCI-H522; NCI-H522, Non-small cell lung carcinoma): 0.309 µM
GI 100% (COLO 205; COLO 205, Colon Cancer): 0.451 µM
GI50 (COLO 205; Homo sapiens, COLO 205): 184 nM
CC50 (COLO 205; Homo sapiens, COLO 205, read-out: LC 50%): 1460 nM
GI50 (SW-620; Homo sapiens, SW-620): 184 nM
CC50 (SW-620; Homo sapiens, SW-620, read-out: LC 50%): 2540 nM
GI 100% (SW-620; SW-620, Colon Cancer): 0.569 µM
GI50 (SF-539; Homo sapiens, SF-539): 191 nM
CC50 (SF-539; Homo sapiens, SF-539, read-out: LC 50%): 638 nM
GI 100% (SF-539; SF-539, CNS Cancer): 0.349 µM
GI50 (SNB-75; Homo sapiens, SNB-75): 372 nM
CC50 (SNB-75; Homo sapiens, SNB-75, read-out: LC 50%): 4300 nM
GI 100% (SNB-75; SNB-75, CNS Cancer): 1.26 µM
GI50 (MALME-3M; Homo sapiens, Malme-3M): 550 nM
CC50 (MALME-3M; Homo sapiens, Malme-3M, read-out: LC 50%): 4570 nM
GI 100% (MALME-3M; MALME-3M, Melanoma): 1.83 µM
GI50 (UACC-257; Homo sapiens, UACC-257): 1260 nM
CC50 (UACC-257; Homo sapiens, UACC-257, read-out: LC 50%): 6990 nM
GI 100% (UACC-257; UACC-257, Melanoma): 2.97 µM
GI50 (UACC-62; Homo sapiens, UACC-62): 214 nM
CC50 (UACC-62; Homo sapiens, UACC-62, read-out: LC 50%): 853 nM
GI 100% (UACC-62; UACC-62, Melanoma): 0.427 µM
GI50 (OVCAR-4; Homo sapiens, OVCAR-4): 147 nM
CC50 (OVCAR-4; Homo sapiens, OVCAR-4, read-out: LC 50%): 1310 nM
GI 100% (OVCAR-4; OVCAR-4, Ovarian Cancer): 0.405 µM
GI 100% (786-0; 786-0, Renal Cancer): 0.907 µM
GI50 (786-0; Homo sapiens, 786-0): 252 nM
CC50 (786-0; Homo sapiens, 786-0, read-out: LC 50%): 3020 nM
GI 100% (A498; A498, Renal Cancer): 1.29 µM
GI50 (A498; Homo sapiens, A498): 268 nM
CC50 (A498; Homo sapiens, A498, read-out: LC 50%): 3850 nM
GI50 (TK-10; Homo sapiens, TK-10): 296 nM
CC50 (TK-10; Homo sapiens, TK-10, read-out: LC 50%): 3470 nM
GI 100% (TK-10; TK-10, Renal Cancer): 1.08 µM
GI50 (UO-31; Homo sapiens, UO-31): 125 nM
CC50 (UO-31; Homo sapiens, UO-31, read-out: LC 50%): 1470 nM
GI 100% (UO-31; UO-31, Renal Cancer): 0.385 µM
GI 100% (DU-145; DU-145, Prostate Cancer): 2.35 µM
GI50 (DU-145; Homo sapiens, DU-145): 1140 nM
CC50 (DU-145; Homo sapiens, DU-145, read-out: LC 50%): 4840 nM
GI50 (MCF-7; Homo sapiens, MCF7): 265 nM
CC50 (MCF-7; Homo sapiens, MCF7, read-out: LC 50%): 3830 nM
GI 100% (MCF-7; MCF-7, Breast Cancer): 1.34 µM
GI 100% (NCI/ADR-RES; Breast Cancer): 2.34 µM
GI50 (NCI/ADR-RES; Homo sapiens): 1040 nM
CC50 (NCI/ADR-RES; Homo sapiens, read-out: LC 50%): 5270 nM
GI 100% (BT-549; BT-549, Breast Cancer): 1.3 µM
GI50 (BT-549; Homo sapiens, BT-549): 302 nM
CC50 (BT-549; Homo sapiens, BT-549, read-out: LC 50%): 4070 nM
GI50 (T-47D; Homo sapiens, T47D): 701 nM
CC50 (T-47D; Homo sapiens, T47D, read-out: LC 50%): > 10000 nM
GI 100% (T-47D; T-47D, Breast Cancer): 3.21 µM
